This is an account of results in patent publication US11590116B2 (THERAVANCE BIOPHARMA R&D IP, LLC, priority 2019, dated 2023).

The target in experiment [1] is T1, recombinant human ALK5 (TGF-βR1) protein (Homo sapiens, UniProt P36897).
T1 construct: purchased Life Technologies PR9075A
T1 sequence (P36897 34-503): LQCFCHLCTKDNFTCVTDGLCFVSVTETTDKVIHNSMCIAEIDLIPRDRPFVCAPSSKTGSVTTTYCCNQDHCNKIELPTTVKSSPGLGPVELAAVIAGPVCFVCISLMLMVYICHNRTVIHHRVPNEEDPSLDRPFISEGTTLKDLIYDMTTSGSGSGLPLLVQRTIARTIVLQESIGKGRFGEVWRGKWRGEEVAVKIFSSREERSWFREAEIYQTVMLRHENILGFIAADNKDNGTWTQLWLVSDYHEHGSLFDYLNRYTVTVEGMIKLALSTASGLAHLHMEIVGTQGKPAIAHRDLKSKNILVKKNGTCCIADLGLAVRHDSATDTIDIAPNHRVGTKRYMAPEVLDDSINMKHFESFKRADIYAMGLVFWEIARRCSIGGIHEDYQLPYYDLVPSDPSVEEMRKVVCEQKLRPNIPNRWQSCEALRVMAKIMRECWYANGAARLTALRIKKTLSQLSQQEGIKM
Description: Biochemical ALK5 (TGF-βR1) assay to measure pKi (LANCE Ultra ULight kinase assay). As to conditions: apparent pKi from pIC50 by Cheng-Prusoff, read-out: ALK5 pKi (converted). Summed up: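 After a 60 min room-temperature preincubation of ALK5 with compound, phosphorylation proceeds 60 min at 37 °C on ATP addition (125 μM as 5× stock). Detection: Eu-labelled phospho-Thr1342 Topo IIα antibody in EDTA buffer, pH 7.0; emission 665 nm.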

Experiment [2] concerns TGF-β-stimulated SMAD3 phosphorylation in BEAS-2B cells. As to the kind of experiment: Cellular ALK5 potency assay, inhibition of TGF-β stimulated pSMAD3 formation in BEAS-2B cells. As to conditions: Homo sapiens; inhibition of TGF-β stimulated pSMAD3 formation, BEAS-2B cells; read-out: BEAS2B pIC50 (converted). Format: cell-based. The method in brief:
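BEAS-2B human lung epithelial cells pre-treated 1 h at 37° C with compound in HBSS/25 mM HEPES/1% BSA, then stimulated 30 min with 10 ng/mL TGF-β (final). Lysates assayed for pSMAD3 by AlphaLISA; pIC50 from dose-dependent change versus stimulated untreated cells.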

With `Cc1cccc(-c2[nH]cnc2-c2ccc3ncc(C(=O)OCCN4CCCC4)cc3c2)n1` [Compound 737, 2-pyrrolidin-1-ylethyl 6-[5-(6-methyl-2-pyridyl)-1H-imidazol-4-yl]quinoline-3-carboxylate], in experiment [1], the Ki was 0.398 to 3.16 nM. Besides, in experiment [2], the IC50 is 25.1 to 158 nM.

Consider `Cc1cccc(-c2[nH]cnc2-c2ccc3ncc(C(=O)OCCC4CCNC4)cc3c2)n1` (stereo not shown) [Compound 1153, 2-pyrrolidin-3-ylethyl 6-[5-(6-methyl-2-pyridyl)-1H-imidazol-4-yl]quinoline-3-carboxylate], for which the Ki in experiment [1] was 0.0398 to 0.316 nM. The IC50 in experiment [2] was 25.1 to 158 nM.

Turning to `CNCCn1cc(-c2cnc3ccc(-c4c[nH]nc4-c4ccc(F)c(C)n4)nc3c2)cn1` [Compound 477, 2-[4-[6-[3-(5-fluoro-6-methyl-2-pyridyl)-1H-pyrazol-4-yl]-1,5-naphthyridin-3-yl]pyrazol-1-yl]-N-methyl-ethanamine], in experiment [1], the Ki was below 0.0316 nM. Further, the IC50 in experiment [2] is below 20 nM.

For the compound `Cc1cccc(-c2n[nH]cc2-c2ccc3nccc(-c4cnoc4)c3n2)n1` [Compound 832, 4-[6-[3-(6-methyl-2-pyridyl)-1H-pyrazol-4-yl]-1,5-naphthyridin-4-yl]isoxazole], the Ki in experiment [1] is 0.0398 to 0.316 nM. Moreover, the IC50 in experiment [2] was 25.1 to 158 nM.

As for `Cc1cccc(-c2[nH]cnc2-c2ccc3ncc(-c4nc(C(=O)O)cs4)cc3c2)n1` [Compound 797, 2-(6-(5-(6-methylpyridin-2-yl)-1H-imidazol-4-yl)quinolin-3-yl)thiazole-4-carboxylic acid], the Ki in experiment [1] was 0.0398 to 0.316 nM. Besides, the IC50 in experiment [2] was 1580 to 10000 nM.

`Cc1cccc(-c2[nH]nnc2-c2ccc3ncc(N4CCCNCC4)cc3n2)n1` [Compound 557, 7-(1,4-diazepan-1-yl)-2-[5-(6-methyl-2-pyridyl)-1H-triazol-4-yl]-1,5-naphthyridine]: the Ki in experiment [1] was 3.98 to 31.6 nM. Also, the IC50 in experiment [2] is 1580 to 10000 nM.

As to `Cc1cccc(-c2[nH]cnc2-c2ccc3ncc(-c4ccc(C(=O)O[C@@H]5CCN(C)C5)cc4)cc3c2)n1` [Compound 158, [(3R)-1-methylpyrrolidin-3-yl] 4-[6-[5-(6-methyl-2-pyridyl)-1H-imidazol-4-yl]-3-quinolyl]benzoate], the Ki in experiment [1] is 0.0398 to 0.316 nM. For the same compound, the IC50 in experiment [2] is 25.1 to 158 nM.

On to `Cc1cccc(-c2n[nH]cc2-c2ccc3ncc(N4CCN5CCCC5C4)cc3n2)n1` (stereo not shown) [Compound 74, 7-(3,4,6,7,8,8a-hexahydro-1H-pyrrolo[1,2-a]pyrazin-2-yl)-2-[3-(6-methyl-2-pyridyl)-1H-pyrazol-4-yl]-1,5-naphthyridine], for which the Ki in experiment [1] was below 0.0316 nM. The IC50 in experiment [2] is 25.1 to 158 nM.

As to `Cc1cccc(-c2[nH]cnc2-c2ccc3ncc(N4CC5(CCNCC5)C4)cc3c2)n1` [Compound 179, 3-(2,7-diazaspiro[3.5]nonan-2-yl)-6-[5-(6-methyl-2-pyridyl)-1H-imidazol-4-yl]quinoline], the Ki in experiment [1] was 0.0398 to 0.316 nM. Further, in experiment [2], the IC50 is 25.1 to 158 nM.

As to `Cc1cccc(-c2n[nH]cc2-c2ccc3ncc(-c4cnn5c4CNCC5)cc3n2)n1` [Compound 308, 2-[3-(6-methyl-2-pyridyl)-1H-pyrazol-4-yl]-7-(4,5,6,7-tetrahydropyrazolo[1,5-a]pyrazin-3-yl)-1,5-naphthyridine], the Ki in experiment [1] is 0.0398 to 0.316 nM. Also, the IC50 in experiment [2] was below 20 nM.

Turning to `Cc1cccc(-c2[nH]cnc2-c2ccc3ncc(-c4ccc(C(=O)O[C@@H]5CCN(C)C5)nc4)cc3c2)n1` [Compound 273, (R)-1-methylpyrrolidin-3-yl 5-(6-(5-(6-methylpyridin-2-yl)-1H-imidazol-4-yl)quinolin-3-yl)picolinate], the Ki in experiment [1] was below 0.0316 nM. Further, in experiment [2], the IC50 was 25.1 to 158 nM.

For `Cc1cccc(-c2nc3ccccn3c2-c2ccc3ncc(N4CCC(N(C)C)C4)cc3n2)n1` (racemic) [Compound 285, rac-(3S)-N,N-dimethyl-1-[6-[2-(6-methyl-2-pyridyl)imidazo[1,2-a]pyridin-3-yl]-1,5-naphthyridin-3-yl]pyrrolidin-3-amine], the Ki in experiment [1] was 0.0398 to 0.316 nM. Further, in experiment [2], the IC50 is 25.1 to 158 nM.

For `Cc1cccc(-c2[nH]cnc2-c2ccc3ncc(N4CCNC(CC(=O)OC5CCNCC5)C4)cc3c2)n1` (stereo not shown) [Compound 689, 4-piperidyl 2-[4-[6-[5-(6-methyl-2-pyridyl)-1H-imidazol-4-yl]-3-quinolyl]piperazin-2-yl]acetate], the Ki in experiment [1] was 0.398 to 3.16 nM. In experiment [2], the IC50 is 200 to 1260 nM.

Regarding `Cc1cccc(-c2n[nH]cc2-c2ccc3ncc(-c4c[nH]cn4)cc3n2)n1` [Compound 157, 7-(1H-imidazol-4-yl)-2-[3-(6-methyl-2-pyridyl)-1H-pyrazol-4-yl]-1,5-naphthyridine], the Ki in experiment [1] was 0.0398 to 0.316 nM. Besides, the IC50 in experiment [2] was 25.1 to 158 nM.

For `Cc1cccc(-c2[nH]cnc2-c2ccc3ncc(NCCN4CC(N)C4)cc3c2)n1` [Compound 476, N-[2-(3-aminoazetidin-1-yl)ethyl]-6-[5-(6-methyl-2-pyridyl)-1H-imidazol-4-yl]quinolin-3-amine], in experiment [1], the Ki is 0.0398 to 0.316 nM. Moreover, the IC50 in experiment [2] is 25.1 to 158 nM.

For `Cc1cccc(-c2nn(C3CCCCO3)cc2-c2ccc3ncc(-c4cnoc4)cc3n2)n1` (stereo not shown) [Compound 203, 4-[6-[3-(6-methyl-2-pyridyl)-1-tetrahydropyran-2-yl-pyrazol-4-yl]-1,5-naphthyridin-3-yl]isoxazole], in experiment [1], the Ki was 0.398 to 3.16 nM. Also, the IC50 in experiment [2] is 200 to 1260 nM.

`Cc1cccc(-c2[nH]cnc2-c2ccc3ncc(Nc4cnn(CCC5CCNCC5)c4)cc3c2)n1` [Compound 667, 6-[5-(6-methyl-2-pyridyl)-1H-imidazol-4-yl]-N-[1-[2-(4-piperidyl)ethyl]pyrazol-4-yl]quinolin-3-amine]: in experiment [1], the Ki was 0.0398 to 0.316 nM. Besides, the IC50 in experiment [2] is 200 to 1260 nM.

Turning to `Cc1cccc(-c2[nH]cnc2-c2ccc3ncc(-c4ccc(C(=O)OCCN5CCC[C@H](N)C5)cn4)cc3c2)n1` [Compound 1214, 2-[(3S)-3-amino-1-piperidyl]ethyl 6-[6-[5-(6-methyl-2-pyridyl)-1H-imidazol-4-yl]-3-quinolyl]pyridine-3-carboxylate], in experiment [1], the Ki was 0.0398 to 0.316 nM. Moreover, the IC50 in experiment [2] is 25.1 to 158 nM.

`Cc1cccc(-c2nnn(C)c2-c2ccc3ncc(NCCN4CCN(C(C)C)CC4)cc3c2)n1` [Compound 244, N-[2-(4-isopropylpiperazin-1-yl)ethyl]-6-[3-methyl-5-(6-methyl-2-pyridyl)triazol-4-yl]quinolin-3-amine]: the Ki in experiment [1] is 0.0398 to 0.316 nM. Besides, the IC50 in experiment [2] was 25.1 to 158 nM.

For `Cc1nc(-c2n[nH]cc2-c2ccc3ncc(-c4cnn(CC5CNC5)c4)cc3n2)ccc1F` [Compound 474, 7-[1-(azetidin-3-ylmethyl)pyrazol-4-yl]-2-[3-(5-fluoro-6-methyl-2-pyridyl)-1H-pyrazol-4-yl]-1,5-naphthyridine], the Ki in experiment [1] is below 0.0316 nM. For the same compound, in experiment [2], the IC50 is 25.1 to 158 nM.

Take `Cc1cccc(-c2[nH]cnc2-c2ccc3ncc(NC4CCC5(CC4)CNC5)cc3c2)n1` [Compound 14, N-(2-azaspiro[3.5]nonan-7-yl)-6-[5-(6-methyl-2-pyridyl)-1H-imidazol-4-yl]quinolin-3-amine]: the Ki in experiment [1] is 0.0398 to 0.316 nM. Further, the IC50 in experiment [2] is 200 to 1260 nM.

Take `Cc1cccc(-c2nnn(Cc3ccccc3)c2-c2ccc3ncc(-c4c[nH]nc4C(F)(F)F)cc3n2)n1` [Compound 288, 2-[3-benzyl-5-(6-methyl-2-pyridyl)triazol-4-yl]-7-[3-(trifluoromethyl)-1H-pyrazol-4-yl]-1,5-naphthyridine]: the Ki in experiment [1] was 0.398 to 3.16 nM. In addition, the IC50 in experiment [2] was 25.1 to 158 nM.

On to `CNc1cnc2ccc(-c3c(-c4cccc(C)n4)n[nH]c3OC)nc2c1` [Compound 507, 6-[5-methoxy-3-(6-methyl-2-pyridyl)-1H-pyrazol-4-yl]-N-methyl-1,5-naphthyridin-3-amine], for which the Ki in experiment [1] was 0.398 to 3.16 nM. Besides, in experiment [2], the IC50 is 200 to 1260 nM.

With `Cc1cccc(-c2[nH]cnc2-c2ccc3ncc(-c4cccc(NC5CCNCC5)n4)cc3c2)n1` [Compound 450, 6-[6-[5-(6-methyl-2-pyridyl)-1H-imidazol-4-yl]-3-quinolyl]-N-(4-piperidyl)pyridin-2-amine], in experiment [1], the Ki was 0.0398 to 0.316 nM. The IC50 in experiment [2] is 25.1 to 158 nM.

In the case of `Cc1cccc(-c2[nH]cnc2-c2ccc3ncc(-c4ccnc(C(=O)OCCN5CCNCC5)c4)cc3c2)n1` [Compound 1099, 2-piperazin-1-ylethyl 4-[6-[5-(6-methyl-2-pyridyl)-1H-imidazol-4-yl]-3-quinolyl]pyridine-2-carboxylate], the Ki in experiment [1] is 0.0398 to 0.316 nM. Besides, the IC50 in experiment [2] is 200 to 1260 nM.

`COc1[nH]nc(-c2cccc(C)n2)c1-c1ccc2ncc(NCCN3CCN(C(C)C)CC3)cc2n1` [Compound 394, N-[2-(4-isopropylpiperazin-1-yl)ethyl]-6-[5-methoxy-3-(6-methyl-2-pyridyl)-1H-pyrazol-4-yl]-1,5-naphthyridin-3-amine]: the Ki in experiment [1] was 0.0398 to 0.316 nM. Also, in experiment [2], the IC50 is 200 to 1260 nM.
